The target in experiment [1] is T1, PYR1 (Arabidopsis thaliana, UniProt O49686).
T1 sequence (O49686 1-191): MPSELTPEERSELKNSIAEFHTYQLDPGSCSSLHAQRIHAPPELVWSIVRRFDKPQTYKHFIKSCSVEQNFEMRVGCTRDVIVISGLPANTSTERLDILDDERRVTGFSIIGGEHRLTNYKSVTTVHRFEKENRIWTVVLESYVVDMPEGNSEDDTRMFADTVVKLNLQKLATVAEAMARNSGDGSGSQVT
T1 sequence (Q9CAJ0 23-511 partner): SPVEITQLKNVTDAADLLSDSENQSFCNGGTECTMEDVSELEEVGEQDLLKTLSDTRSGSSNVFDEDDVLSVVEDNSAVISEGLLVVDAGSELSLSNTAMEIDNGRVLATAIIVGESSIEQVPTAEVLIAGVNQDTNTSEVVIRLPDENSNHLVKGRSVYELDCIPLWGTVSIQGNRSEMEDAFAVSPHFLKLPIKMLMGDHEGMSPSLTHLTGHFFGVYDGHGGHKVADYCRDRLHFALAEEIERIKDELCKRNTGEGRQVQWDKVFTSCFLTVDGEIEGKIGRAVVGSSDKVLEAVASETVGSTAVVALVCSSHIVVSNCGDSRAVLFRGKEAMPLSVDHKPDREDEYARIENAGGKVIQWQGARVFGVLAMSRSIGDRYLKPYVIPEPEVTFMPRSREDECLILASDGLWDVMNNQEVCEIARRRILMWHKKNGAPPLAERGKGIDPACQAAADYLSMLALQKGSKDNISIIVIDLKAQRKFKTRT
Kind of experiment: PP2C inhibition assay, recombinant PYR1 receptor. Format: biochemical. The procedure: (§1) Reactions were started by adding 40 μL of a reaction solution containing 25 mM 4-nitrophenyl phosphate in assay buffer, after which absorbance measurements were immediately collected using a 405 nm on Wallac plate reader. Reactions contained 100 nM PP2C and 200 nM PYR/PYL proteins. […] The dose response data was fitted to a log (inhibitor) vs response-(variable slope) model using non-linear regression to infer the IC50 values using Graph Pad Prism 6.0.

Experiment [2] deals with T2, PYL2 (Arabidopsis thaliana, UniProt O80992).
T2 sequence (O80992 1-190): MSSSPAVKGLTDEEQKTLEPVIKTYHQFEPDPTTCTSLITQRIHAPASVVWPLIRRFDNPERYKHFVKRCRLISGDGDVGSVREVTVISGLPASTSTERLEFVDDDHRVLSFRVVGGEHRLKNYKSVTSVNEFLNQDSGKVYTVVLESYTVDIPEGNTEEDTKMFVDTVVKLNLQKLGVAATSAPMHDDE
T2 sequence (Q9CAJ0 23-511 partner): T1 sequence (Q9CAJ0 23-511 partner)
Kind of experiment: PP2C inhibition assay, recombinant PYL2 receptor. Format: biochemical. How it is done:
as §1

The test system of experiment [3] is Arabidopsis thaliana seeds. Kind of experiment: Germination assay. The class given is in vivo. Particulars: Minimal Inhibitory Concentration, 3 d in darkness after 4 d stratification. The procedure: Germination experiments were performed with Arabidopsis thaliana seeds of wildtype Col0, Ler, or mutant backgrounds.
Seeds were sterilized by 30 sec incubation in 70% ethanol solution followed by a 5 min […] (while vigorously shaking) in a bleach-Tween solution. Afterwards, the sterilizing solutions were removed, and five washes were performed with sterile distilled water. To enhance complete removal of the solutions between the different steps, short centrifuge spins were performed. Finally, the now surface-sterilized seeds were re-suspended in an aseptic 0.1% agar solution to simplify distribution over multiwall plates. One drop of the solution contained on average 20-30 seeds.
In the multiwell plates, seeds were plated onto 0.7% agar Murashige amd Skoog (MS) plant growth medium containing one-half MS salts and 0.5% sucrose containing different concentrations of ABA, quinabactin, or the compound of interest. After 4 d of stratification at 4° C., the plates were transferred to a growth chamber in darkness and allowed to germinate for 3 d before germination was evaluated. The results are shown above in Table 1 and FIGS. 3A and 3B.

[4] abbreviates: recombinant receptor 200 nM, PP2C 100 nM, 4-nitrophenyl phosphate substrate, absorbance 405 nm, read-out: IC50 PYR1.
Setting [5] is: recombinant receptor 200 nM, PP2C 100 nM, 4-nitrophenyl phosphate substrate, absorbance 405 nm, read-out: IC50 PYL2.

≈ marks a conversion by molar mass, not a printed value. Where two headings read alike, the source gives them in different places. Bounds are passed on as bounds.

Experimental findings from US10905120B2, “ABA receptor agonists that modulate transpiration” (The Regents of the University of California, priority 2016, dated 2021) are described below.

Broadly, the IC50 is the point on the concentration scale where inhibition reaches its midpoint. For `Cc1cc(NS(=O)(=O)Cc2ccc(C(F)(F)F)cc2)ccc1C#N` [Ligand Q13, N-(4-Cyano-3-methylphenyl)-1-[4-(trifluoromethyl)phenyl]methanesulfonamide], the IC50 in experiment [1] (setting [4]) was 1.1 ± 0.183 µM; in experiment [2] (setting [5]), more than 50 µM. The “MIC (μM) Germination” value in experiment [3] was more than 25 µM.

For the molecule `COc1cc(NS(=O)(=O)Cc2ccc(C)cc2)ccc1C#N` [Ligand Q20, N-(4-Cyano-3-methoxyphenyl)-1-(4-methylphenyl)methanesulfonamide], the 50% inhibitory concentration (IC50) is 0.13 ± 0.009 µM in experiment [1] (setting [4]) and 11.8 ± 1.12 µM in experiment [2] (setting [5]). Further, the “MIC (μM) Germination” value in experiment [3] was 5 µM (≈ 1.58 µg/mL).

For `Cc1cc(NS(=O)(=O)Cc2ccc(C3CC3)cc2)cc(C)c1C#N` [Ligand Q23, N-(4-Cyano-3,5-dimethylphenyl)-1-(4-cyclopropylphenyl)methanesulfonamide], the IC50 was 0.203 ± 0.025 µM in experiment [1] (setting [4]) and 20.1 ± 1.46 µM in experiment [2] (setting [5]). Moreover, the “MIC (μM) Germination” value in experiment [3] came out at 10 µM (≈ 3.4 µg/mL).

Take `CCCN1C(=O)CCc2cc(NS(=O)(=O)Cc3ccc(C)cc3)ccc21` [QB, Quinabactin, reference compound]: the “MIC (μM) Germination” value in experiment [3] was determined as 3 µM (≈ 1.12 µg/mL).

On to `Cc1ccc(CS(=O)(=O)Nc2ccc(C#N)c(Cl)c2)cc1` [Ligand Q2, N-(3-Chloro-4-cyanophenyl)-1-(4-methylphenyl)methanesulfonamide], for which the concentration for half-maximal inhibition (IC50) was 3.91 ± 0.122 µM in experiment [1] and more than 50 µM in experiment [2]. In experiment [3], the “MIC (μM) Germination” value is 25 µM (≈ 8.02 µg/mL).

With `Cc1ccc(CS(=O)(=O)Nc2cc(C)c(C#N)c(C3CC3)c2)cc1` [Ligand Q28, N-(4-Cyano-3-cyclopropyl-5-methylphenyl)-1-(4-methylphenyl) methanesulfonamide], the results for the 50% inhibitory concentration (IC50) in experiment [1] (setting [4]) and in experiment [2] (setting [5]) were 0.21 ± 0.036 µM and 1.66 ± 0.046 µM, respectively. Moreover, the “MIC (μM) Germination” value in experiment [3] amounted to 10 µM (≈ 3.4 µg/mL).

With `N#Cc1ccc(NS(=O)(=O)Cc2ccc(C(F)(F)F)cc2)cc1C(F)(F)F` [Ligand Q9, N-[4-Cyano-3-(trifluoromethyl)phenyl]-1-[4-(trifluoromethyl)phenyl]methanesulfonamide], the IC50 in experiment [1] was 3.4 ± 0.27 µM; in experiment [2], more than 50 µM. In addition, the “MIC (μM) Germination” value in experiment [3] amounted to 10 µM (≈ 4.08 µg/mL).

Take `Cc1ccc(CS(=O)(=O)Nc2cc(C(F)(F)F)c(C#N)cc2[N+](=O)[O-])cc1` [Ligand Q17, N-[4-Cyano-2-nitro-5-(trifluoromethyl)phenyl]-1-(4-methylphenyl) methanesulfonamide]: the half-inhibitory concentration (IC50) in experiment [1] (setting [4]) and in experiment [2] (setting [5]) was more than 50 µM in each case. For the same molecule, the “MIC (μM) Germination” value in experiment [3] is more than 25 µM.

Take `Cc1ccc(CS(=O)(=O)Nc2ccc(C#N)c(C(F)(F)F)c2)cc1` [Ligand Q4, N-(4-Cyano-3-(trifluoromethyl)-phenyl)-1-(4-methylphenyl)methanesulfonamide]: the IC50 in experiment [1] was found to be 0.258 ± 0.019 µM; in experiment [2], 9.58 ± 0.102 µM. The “MIC (μM) Germination” value in experiment [3] was found to be 10 µM (≈ 3.54 µg/mL).

In the case of `Cc1cc(NS(=O)(=O)Cc2ccc(Cl)cc2)cc(C)c1C#N` [Ligand Q22, 1-(4-Chlorophenyl)-N-(4-cyano-3,5-dimethylphenyl)methanesulfonamide], the half-maximal inhibitory concentration (IC50) was 0.197 ± 0.009 µM in experiment [1] (setting [4]) and 5.63 ± 0.8 µM in experiment [2] (setting [5]). Further, the “MIC (μM) Germination” value in experiment [3] is 10 µM (≈ 3.35 µg/mL).

For `Cc1ccc(CS(=O)(=O)Nc2cc(C(F)(F)F)c(C#N)cc2N)cc1` [Ligand Q18, N-[2-Amino-4-cyano-5-(trifluoromethyl)phenyl]-1-(4-methylphenyl) methanesulfonamide], the concentration for half-maximal inhibition (IC50) in experiment [1] (setting [4]) and in experiment [2] (setting [5]) was more than 50 µM throughout. In experiment [3], the “MIC (μM) Germination” value is more than 25 µM.

`CCCN(C(C)=O)c1ccc(NS(=O)(=O)Cc2ccc(C)cc2)cc1C(F)(F)F` [Ligand Q11, N-[4-{[(4-Methylbenzyl)sulfonyl]amino}-2-(trifluoromethyl)phenyl]-N-propylacetamide]: the IC50 in experiment [1] (setting [4]) and in experiment [2] (setting [5]) was more than 50 µM in each case. Besides, in experiment [3], the “MIC (μM) Germination” value is more than 25 µM.

As to `N#Cc1ccc(NS(=O)(=O)Cc2ccc(N)cc2)cc1C(F)(F)F` [Ligand Q6, 1-(4-Aminophenyl)-N-[4-cyano-3-(trifluoromethyl)phenyl]methanesulfonamide], the IC50 was 3.4 ± 0.2 µM in experiment [1] and more than 50 µM in experiment [2]. Further, the “MIC (μM) Germination” value in experiment [3] is more than 25 µM.

For `Cc1ccc(CS(=O)(=O)Nc2cc(C(F)(F)F)c(C#N)c(C(F)(F)F)c2)cc1` [Ligand Q14, N-(4-Cyano-3,5-(bistrifluoromethyl)phenyl)-1-(4-methylphenyl) methanesulfonamide], the IC50 in experiment [1] (setting [4]) and in experiment [2] (setting [5]) was more than 50 µM each time. The “MIC (μM) Germination” value in experiment [3] was more than 25 µM.

Turning to `CC(=O)Nc1ccc(NS(=O)(=O)Cc2ccc(C)cc2)cc1C(F)(F)F` [Ligand Q10, N-[4-{[(4-Methylbenzyl)sulfonyl]amino}-2-(trifluoromethyl)phenyl]acetamide], the IC50 in experiment [1] (setting [4]) and in experiment [2] (setting [5]) was more than 50 µM each time. In experiment [3], the “MIC (μM) Germination” value is more than 25 µM.

Consider `N#Cc1ccc(NS(=O)(=O)Cc2ccc(Br)cc2)cc1C(F)(F)F` [Ligand Q7, 1-(4-Bromophenyl)-N-[4-cyano-3-(trifluoromethyl)phenyl]methanesulfonamide], for which the 50% inhibitory concentration (IC50) in experiment [1] is 0.326 ± 0.0077 µM; in experiment [2], 31.4 ± 3.4 µM. Moreover, the “MIC (μM) Germination” value in experiment [3] amounted to 10 µM (≈ 4.19 µg/mL).

On to `Cc1ccc(CS(=O)(=O)Nc2cc(C)c(C#N)c(Br)c2)cc1` [Ligand Q25, N-(3-Bromo-4-cyano-5-methylphenyl)-1-(4-methylphenyl)methanesulfonamide], for which the IC50 in experiment [1] (setting [4]) came out at 0.355 ± 0.034 µM; in experiment [2] (setting [5]), 16.7 ± 0.788 µM. Further, in experiment [3], the “MIC (μM) Germination” value was 25 µM (≈ 9.48 µg/mL).

Consider `Cc1ccc(CS(=O)(=O)Nc2cc(C)c(C#N)c(C)c2)cc1` [Ligand Q15, N-(4-Cyano-3,5-dimethylphenyl)-1-(4-methylphenyl)methanesulfonamide], for which the IC50 was found to be 0.098 ± 0.007 µM in experiment [1] (setting [4]) and 2.58 ± 0.222 µM in experiment [2] (setting [5]). For the same molecule, the “MIC (μM) Germination” value in experiment [3] turned out to be 10 µM (≈ 3.14 µg/mL).

For the molecule `Cc1cc(NS(=O)(=O)Cc2ccc(Br)cc2F)cc(C)c1C#N` [Ligand Q24, 1-(4-Bromo-2-fluorophenyl)-N-(4-cyano-3,5-dimethylphenyl)methanesulfonamide], the 50% inhibitory concentration (IC50) turned out to be 0.188 ± 0.019 µM in experiment [1] and 11.9 ± 1.47 µM in experiment [2]. In experiment [3], the “MIC (μM) Germination” value turned out to be 10 µM (≈ 3.97 µg/mL).

`N#Cc1ccc(NS(=O)(=O)Cc2ccc([N+](=O)[O-])cc2)cc1C(F)(F)F` [Ligand Q5, N-[4-Cyano-3-(trifluoromethyl)phenyl]-1-(4-nitrophenyl)methanesulfonamide]: the IC50 in experiment [1] is 8.24 ± 0.52 µM; in experiment [2], more than 50 µM. Moreover, the “MIC (μM) Germination” value in experiment [3] was more than 25 µM.

Turning to `Cc1ccc(CS(=O)(=O)Nc2ccc(C#N)c(C)c2)cc1` [Ligand Q1, N-(4-Cyano-3-methylphenyl)-1-(4-methylphenyl)methanesulfonamide], the half-inhibitory concentration (IC50) in experiment [1] (setting [4]) was determined as 0.246 ± 0.06 µM; in experiment [2] (setting [5]) it was 20 ± 1.08 µM. In experiment [3], the “MIC (μM) Germination” value was determined as 10 µM (≈ 3 µg/mL).

Regarding `Cc1ccc(CS(=O)(=O)Nc2ccc(C#N)c(Br)c2)cc1` [Ligand Q3, N-(3-Bromo-4-cyanophenyl)-1-(4-methylphenyl)methanesulfonamide], the IC50 in experiment [1] (setting [4]) is 2.5 ± 0.151 µM; in experiment [2] (setting [5]), more than 50 µM. Further, the “MIC (μM) Germination” value in experiment [3] is more than 25 µM.
